Measured values from patent publication US20040127511A1 (Pharmacia Corporation, priority 2002, published 2004).
Where a name gives a salt, the structure may show the parent alone. Read-outs that look alike come from different tables or passages of the source.

What was measured:
[1] = system: LPS-induced TNFα production; experiment: Rat LPS assay: Lipopolysaccharide (LPS)-Induced TNFα Production; format: in vivo; conditions: 20 mpk (IP); inhibition of serum TNFα vs vehicle
[2] = system: TNFα release, U937 cells; experiment: U937 Cell TNFα Release Assay (LPS-stimulated, TNFα ELISA); format: cell-based; conditions: Homo sapiens, read-out: TNFα release assay IC50
Procedure: U937 Cell TNFα Release Assay
The human monocyte-like cell line, U937 (ATCC #CRL-1593.2), is cultured in RPMI1640 media with 10% heat-inactivated fetal calf serum (GIBCO), glutamine and pen/strep at 37° C. and 5% CO2. Differentiation of U937 to monocytic/macrophage-like cells is induced by the addition of phorbol12-myristate 13-acetate (Sigma) at final concentration of 20 ng/ml to a culture of U937 cells at ˜0.5 million cells/ml and incubated for 24 hrs. The cells are centrifuged, washed with PBS and resuspended in fresh media without PMA and incubated for 24 hrs. Cells adherent to the culture flask are harvested by scraping, centrifugation, and resuspended in fresh media to 2 million cells/ml, and 0.2 ml is aliquoted to each of 96 wells in flat-bottom plate. Cells are then incubated for an additional 24 hrs to allow for recovery. […]
ELISA plates (NUNC-Immuno™ Plate Maxisorb™ Surface) were coated with purified mouse monoclonal IgG1 anti-human TNFα antibody (R&D Systems #MAB610; 1.25 ug/ml in sodium bicarbonate pH 8.0, 0.1 ml/well) and incubated at 4° C. […] Enzymatic conversion of ABTS to colored product was measured after 5-30 minutes using a SpectroMax 340 spectrophotometer (Molecular Devices) at 405 nm. TNF levels were quantitated from a recombinant human TNFα (R&D Systems #210-TA-010) standard curve using a quadratic parameter fit generated by SoftMaxPRO software. […]

[3] = target: MAPKAPK2 (Homo sapiens, UniProt P49137); experiment: biochemical; format: biochemical
Chain of MAPKAPK2 (P49137 whole entry, species assumed): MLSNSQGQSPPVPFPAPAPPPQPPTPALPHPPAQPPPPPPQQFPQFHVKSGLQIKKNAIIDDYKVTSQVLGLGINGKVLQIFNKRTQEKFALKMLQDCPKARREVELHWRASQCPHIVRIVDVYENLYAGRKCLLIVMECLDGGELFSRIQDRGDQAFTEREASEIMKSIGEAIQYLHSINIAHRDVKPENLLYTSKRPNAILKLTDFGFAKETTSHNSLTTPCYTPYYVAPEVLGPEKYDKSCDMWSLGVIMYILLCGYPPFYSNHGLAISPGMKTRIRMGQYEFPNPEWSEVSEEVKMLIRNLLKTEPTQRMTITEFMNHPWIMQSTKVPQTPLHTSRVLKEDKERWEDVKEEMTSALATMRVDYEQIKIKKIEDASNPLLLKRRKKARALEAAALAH
Procedure: The phosphorylation of HSP-peptide ([sequence]) by MAPKAPK2 was measured using an anion exchange resin capture assay method. […] The reaction was terminated and [γ^33P]ATP was removed from solution by the addition of 150 μl of AG 1×8 ion exchange resin in 900 mM sodium formate pH 3.0. A 50 μl aliquot of head volume was removed from the quenched reaction mixture and added to a 96-well plate, 150 μl of Microscint-40 (Packard) was added and the amount of phosphorylated-peptide was determined.
Compounds are evaluated as potential inhibitors of the MK2 kinase by measuring their effects on MK2 phosphorylation of the peptide substrate. Compounds may be screened initially at two concentrations prior to determination of IC50 values. Screening results are expressed as percent inhibition at the concentrations of compound tested. For IC50 value determinations, compounds are tested at six concentrations in ten-fold serial dilutions with each concentration tested in triplicate. Results are expressed as IC50 values in micromolar. The assay is performed at a final concentration of 2% DMSO.

[4] = HSP-peptide substrate, 0.03 mM ATP, 2% DMSO, read-out: MK-2 Avg. IC50

Row | Structure (SMILES) | IC50 [3, 4] [µM] | further results
1 | N#Cc1c(N)nc2c(c1N)Cc1ccc(OCCN)cc1O2 [No. 19, 2,4-diamino-8-(2-aminoethoxy)-5H-chromeno[2,3-b]pyridine-3-carbonitrile hydrochloride] |  | Rat LPS Assay inhibition [1]: 88%; IC50 ([2]; U-937, 4 h): 6.9 µM
2 | COc1cc2c(cc1OC)Oc1nc(N)c(C#N)c(NCCN3C(=O)c4ccccc4C3=O)c1C2 [No. 94] | ≥ 200 | 
3 | CCNc1nc2c(c(NCC)c1C#N)Cc1cc(OC)c(OC)cc1O2 [No. 103, trifluoroacetate] | ≥ 200 | 
4 | COc1cccc2c1Cc1c(nc(N)c(C#N)c1N)O2 [No. 70, trifluoroacetate] | ≥ 200 | 
5 | N#Cc1c(N)nc2c(c1N)Cc1ccc(OCCN3CCOCC3)cc1O2 [No. 28, trifluoroacetate] |  | IC50 [3]: 0.91 µM
6 | N#Cc1c(N)nc2c(c1N)Cc1cccc(C(=O)O)c1O2 [No. 81, trifluoroacetate] |  | IC50 [3]: ≥ 200 µM
7 | N#Cc1c(N)nc2c(c1N)Cc1ccc(OCCN3CCCC3)cc1O2.O=C(O)C(F)(F)F [No. 25, 2,4-diamino-8-(2-pyrrolidin-1-ylethoxy)-5H-chromeno[2,3-b]pyridine-3-carbonitrile] |  | Rat LPS Assay inhibition [1]: 60%; IC50 ([2]; U-937, differentiated U937 cells, LPS 100 ng/ml, 4 hrs): 2.9 µM
8 | N#Cc1c(N)nc2c(c1N)Cc1cc(OC(F)(F)F)ccc1O2 [No. 70, trifluoroacetate] | ≥ 200 | 
9 | COc1cc(OC)c2c(c1)Oc1nc(N)c(C#N)c(N)c1C2 [No. 62, trifluoroacetate] | ≥ 200 | 
10 | Cc1ccc2c(c1)Oc1nc(N)c(C#N)c(N)c1C2 [No. 42, trifluoroacetate] | ≥ 200 | 
11 | N#Cc1c(N)nc2c(c1N)Cc1cccc(OCc3ccncc3)c1O2 [No. 83] | ≥ 200 | 
